# Measurements: US10463671B2, “Combination therapy for treating cancer” (Epizyme, Inc., priority 2013, dated 2019)
# Test system: glucocorticoid signaling genes in RL cells
# Assay: RT2 Glucocorticoid Signaling PCR array
# Assay type: cell-based
# Conditions: 4 days, 1 μM Cpd44, Pred 10-fold below 4-day IC50
# Protocol: Gene expression was normalized to array's B2M and fold change compared to DMSO was calculated using the ΔΔCt method.
smiles,measurement,setting,value
CCN(c1cc(-c2ccc(CN3CCOCC3)cc2)cc(C(=O)NCc2c(C)cc(C)[nH]c2=O)c1C)C1CCOCC1 [Compound 44],ACTB Ct value,,15.664
same,ACTB ΔCT (B2M),,−3.694
same,ADARB1 Ct value,,26.650
same,ADARB1 ΔCT (B2M),,7.292
same,AFF1 Ct value,,26.820
same,AFF1 ΔCT (B2M),,7.462
same,AK2 Ct value,,20.270
same,AK2 ΔCT (B2M),,0.912
same,AMPD3 Ct value,,27.191
same,AMPD3 ΔCT (B2M),,7.833
same,ANGPTL4 Ct value,,29.820
same,ANGPTL4 ΔCT (B2M),,10.462
same,ANXA4 Ct value,,24.395
same,ANXA4 ΔCT (B2M),,5.037
same,ARID5B Ct value,,27.333
same,ARID5B ΔCT (B2M),,7.975
same,ASPH Ct value,,23.466
same,ASPH ΔCT (B2M),,4.108
same,ATF4 Ct value,,18.269
same,ATF4 ΔCT (B2M),,−1.089
same,B2M Ct value,,19.358
same,B2M ΔCT (B2M),,0.000
same,BCL6 Ct value,,20.289
same,BCL6 ΔCT (B2M),,0.931
same,CEBPA Ct value,,36.511
same,CEBPA ΔCT (B2M),,17.153
same,CEBPB Ct value,,23.765
same,CEBPB ΔCT (B2M),,4.407
same,COL4A2 Ct value,,31.782
same,COL4A2 ΔCT (B2M),,12.424
same,CREB1 Ct value,,23.217
same,CREB1 ΔCT (B2M),,3.859
same,CREB3 Ct value,,24.178
same,CREB3L4 Ct value,,23.500
same,CREB3L4 ΔCT (B2M),,4.142
same,CREB3 ΔCT (B2M),,4.820
same,CYB561 Ct value,,38.452
same,CYB561 ΔCT (B2M),,19.094
same,DDIT4 Ct value,,22.679
same,DDIT4 ΔCT (B2M),,3.321
same,DUSP1 Ct value,,25.422
same,DUSP1 ΔCT (B2M),,6.064
same,EDN1 Ct value,,31.815
same,EDN1 ΔCT (B2M),,12.457
same,EHD3 Ct value,,24.572
same,EHD3 ΔCT (B2M),,5.214
same,ERRFI1 Ct value,,31.705
same,ERRFI1 ΔCT (B2M),,12.347
same,FKBP5 Ct value,,21.757
same,FKBP5 ΔCT (B2M),,2.399
same,FOSL2 Ct value,,30.761
same,FOSL2 ΔCT (B2M),,11.403
same,GAPDH Ct value,,15.720
same,GAPDH ΔCT (B2M),,−3.638
same,GDPD1 Ct value,,27.394
same,GDPD1 ΔCT (B2M),,8.036
same,GHRHR Ct value,,37.546
same,GHRHR ΔCT (B2M),,18.188
same,GLUL Ct value,,28.738
same,GLUL ΔCT (B2M),,9.380
same,GOT1 Ct value,,22.584
same,GOT1 ΔCT (B2M),,3.226
same,H6PD Ct value,,25.012
same,H6PD ΔCT (B2M),,5.654
same,HNRPLL Ct value,,22.844
same,HNRPLL ΔCT (B2M),,3.486
same,HPRT1 Ct value,,22.013
same,HPRT1 ΔCT (B2M),,2.655
same,IL1RN Ct value,,28.405
same,IL1RN ΔCT (B2M),,9.047
same,IL6R Ct value,,29.246
same,IL6R ΔCT (B2M),,9.888
same,IL10 Ct value,,31.498
same,IL10 ΔCT (B2M),,12.140
same,KLF13 Ct value,,22.854
same,KLF13 ΔCT (B2M),,3.496
same,MERTK Ct value,,30.691
same,MERTK ΔCT (B2M),,11.333
same,MT1E Ct value,,34.215
same,MT1E ΔCT (B2M),,14.857
same,MT2A Ct value,,24.279
same,MT2A ΔCT (B2M),,4.921
same,NFKBIA Ct value,,23.710
same,NFKBIA ΔCT (B2M),,4.352
same,NR3C1 Ct value,,22.616
same,NR3C1 ΔCT (B2M),,3.258
same,PDCD7 Ct value,,24.406
same,PDCD7 ΔCT (B2M),,5.048
same,PDP1 Ct value,,25.387
same,PDP1 ΔCT (B2M),,6.029
same,PER1 Ct value,,25.492
same,PER1 ΔCT (B2M),,6.134
same,PER2 Ct value,,24.378
same,PER2 ΔCT (B2M),,5.020
same,PIK3R1 Ct value,,23.908
same,PIK3R1 ΔCT (B2M),,4.550
same,PLEKHF1 Ct value,,30.520
same,PLEKHF1 ΔCT (B2M),,11.162
same,POU2F1 Ct value,,24.243
same,POU2F1 ΔCT (B2M),,4.885
same,POU2F2 Ct value,,21.769
same,POU2F2 ΔCT (B2M),,2.411
same,RASA3 Ct value,,26.279
same,RASA3 ΔCT (B2M),,6.921
same,RGS2 Ct value,,25.721
same,RGS2 ΔCT (B2M),,6.363
same,RPLP0 Ct value,,14.837
same,RPLP0 ΔCT (B2M),,−4.521
same,SESN1 Ct value,,24.425
same,SESN1 ΔCT (B2M),,5.067
same,SGK1 Ct value,,26.262
same,SGK1 ΔCT (B2M),,6.904
same,SLC19A2 Ct value,,25.536
same,SLC19A2 ΔCT (B2M),,6.178
same,SNTA1 Ct value,,25.554
same,SNTA1 ΔCT (B2M),,6.196
same,SPHK1 Ct value,,31.119
same,SPHK1 ΔCT (B2M),,11.761
same,SPSB1 Ct value,,26.285
same,SPSB1 ΔCT (B2M),,6.927
same,STAT5A Ct value,,22.769
same,STAT5A ΔCT (B2M),,3.411
same,STAT5B Ct value,,22.683
same,STAT5B ΔCT (B2M),,3.325
same,TBL1XR1 Ct value,,21.663
same,TBL1XR1 ΔCT (B2M),,2.305
same,TNF Ct value,,24.712
same,TNF ΔCT (B2M),,5.354
same,TNFAIP3 Ct value,,26.896
same,TNFAIP3 ΔCT (B2M),,7.538
same,TSC22D3 Ct value,,23.300
same,TSC22D3 ΔCT (B2M),,3.942
same,USP2 Ct value,,21.420
same,USP2 ΔCT (B2M),,2.062
same,USP54 Ct value,,26.364
same,USP54 ΔCT (B2M),,7.006
same,VDR Ct value,,27.736
same,VDR ΔCT (B2M),,8.378
same,ZFP36 Ct value,,24.374
same,ZFP36 ΔCT (B2M),,5.016
same,ZHX3 Ct value,,29.785
same,ZHX3 ΔCT (B2M),,10.427
same,ZNF281 Ct value,,23.667
same,ZNF281 ΔCT (B2M),,4.309
same,AFF1 ΔΔCT,vs DMSO,−2.006
same,ATF4 ΔΔCT,vs DMSO,0.003
same,CEBPB ΔΔCT,vs DMSO,−0.004
same,CREB3L4 ΔΔCT,vs DMSO,−0.760
same,HNRPLL ΔΔCT,vs DMSO,0.309
same,LOX ΔΔCT,vs DMSO,−0.580
same,NFKBIA ΔΔCT,vs DMSO,0.854
same,NR3C1 ΔΔCT,vs DMSO,0.067
same,PDCD7 ΔΔCT,vs DMSO,0.006
same,PLEKHF1 ΔΔCT,vs DMSO,0.050
same,POU2F1 ΔΔCT,vs DMSO,−0.027
same,POU2F2 ΔΔCT,vs DMSO,−0.584
same,RASA3 ΔΔCT,vs DMSO,−0.009
same,SNTA1 ΔΔCT,vs DMSO,0.040
same,STAT5A ΔΔCT,vs DMSO,0.001
same,STAT5B ΔΔCT,vs DMSO,−0.094
same,ZFP36 ΔΔCT,vs DMSO,−0.036
same,ZNF281 ΔΔCT,vs DMSO,0.046
